Paper PMC8624998, “Synthesis and Antiproliferative Evaluation of 3-Chloroazetidin-2-ones with Antimitotic Activity: Heterocyclic Bridged Analogues of Combretastatin A-4” (Pharmaceuticals, 2021)
Where two headings read alike, the source gives them in different places. Marks after values point to notes of the source that are not given here. Blank lines part the entries; values can stand above or below the molecule they belong to.

What was measured:
MCF-7 cells [1] = test: Lactate dehydrogenase (LDH) assay for cytotoxicity; type: cell-based; conditions: Homo sapiens, MCF7; MCF-7, compound concentration 10 μM, 24 h; read-out: Lactate Dehydrogenase assay: % cell lysis (cell death)
Procedure: The toxicity and selectivity of 10n towards normal cells was investigated in the non-tumourigenic cell line HEK-293T (normal human epithelial embryonic kidney cells). […] The cytotoxic effect of selected 3-chloro-β-lactams 10e, 10f, 10i, 10n and 3,3-dichloro-β-lactams 11e and 11n in MCF-7 cells was initially determined using the lactate dehydrogenase (LDH) assay.
The cytotoxicity of selected compounds was determined using the CytoTox 96 non-radioactive cytotoxicity assay (Promega Corporation, Madison, WI, USA). Briefly, MCF-7 cells were seeded in a 96-well plate (200 μL per well), at a density of 2.5 × 10^4 cells/mL, and incubated for 24 h. The cells were then treated with selected β-lactam compounds as described above for the cell viability assay. […] Supernatant (50 μL) was removed from each well to a 96-well plate. Reconstituted ‘CytoTox 96® Reagent (50 μL) was added to each well and the plate was placed in the dark at 20 °C for 30 min. ‘Stop solution’ (50 μL) was added to each well and the samples were analysed at 490 nm using a Dynatech MR5000 plate reader. The percentage cell death at 10 μM was calculated.

MCF-7 cells [2] = conditions: MCF-7, 72 h, previously reported compounds, cited from earlier work
MCF-7 cells [3] = test: Cell viability assay (MTT/AlamarBlue), antiproliferative activity; type: cell-based, human; conditions: MCF-7, 72 h; for IC50: read-out: IC50 (MCF-7, 72 h)
Source text: […]. The introduction of the halogen substituent at C-3 was examined in an effort to investigate the effect on the activity of this substituent, and subsequently optimising the cytotoxic effects against MCF-7 human breast cancer cells.
(§1) The human breast carcinoma cell line MCF-7 was purchased from the European Collection of Animal Cell Cultures (ECACC). Triple negative breast cancer Hs578T cells and its invasive variant Hs578Ts(i)8 were a kind gift from Dr. Susan McDonnell, School of Chemical and Bioprocess Engineering, University College Dublin. U266 cells were a gift from Dr. Tony McElligott, School of Medicine, St James’s Hospital, Trinity College Dublin. HT-29 cells were purchased from the European Collection of Cell Cultures (originating from a human adenocarcinoma of the colon). The human breast carcinoma cell line MDA-MB-231 and the HL-60 cells derived from a patient with acute myeloid leukaemia were both obtained from ECACC (Salisbury, UK). The SW-480 cells were a kind gift from Dr. Brian Flood, School of Biochemistry and Immunology, Trinity College Dublin. HEK-293T (normal epithelial embryonic kidney cells) were cultured in Dulbecco’s Modified Eagle’s Medium (DMEM) with GlutaMAXTM-I in the absence of non-essential amino acids. Human breast cancer MCF-7 cells and multiple myeloma U266 cells were cultured in Minimum Essential Media (MEM) with GlutaMAX™-I, supplemented with 1% (v/v) non-essential amino acids, 10% 2(v/v) foetal bovine serum (FBS) and 1% (v/v) penicillin/streptomycin 5000 U/mL. MDA-MB-231 cells were maintained in DMEM supplemented with 10% (v/v) foetal bovine serum, 2 mM L-glutamine and 100 μg/mL penicillin/streptomycin (complete medium). Colon cancer HT-29 and SW-480 and triple negative breast cancer Hs578T and its invasive variant Hs578T8i were cultured in DMEM with GlutaMAX™-I, with the same supplement in the absence of non-essential amino acids. Leukaemia HL-60 cancer cells were cultured in Roswell Park Memorial Institute Media (RPMI-1640) with GlutaMAX™-I, supplemented with 10% FCS media, and 100 μg/mL penicillin/streptomycin as above. Cell numbers were monitored using a haemocytometer. Cell culture flasks were incubated in a humidified incubator (5% CO2/95% air) at 37 °C. All cell lines were sub-cultured three times per week with trypsinisation using TrypLE Express (1X) required for adherent cell lines.
(§2) . All stock solutions and serial dilution in ethanol/DMSO were stored at -20 °C. All cells were seeded at a density of 2.5 × 10^4 cells/mL in a 96-well plate (200 μL per well). The cells were incubated in a […] atmosphere at 37 °C for 24 h, then treated with test compound (2 μL of stock solutions per 200-microlitre well) in ethanol to obtain a concentration range of 1 nM–200 μM for the study. The plates were then re-incubated for a further 72 h. Control wells contained an equivalent volume of the vehicle ethanol or DMSO (1% v/v). MTT cell viability assay: The culture medium was removed, and the cells were washed with phosphate buffered saline (PBS, […]). MTT (dissolved in PBS, […]) was added to obtain a final concentration of MTT (1 mg/mL). Cells were incubated at 37 °C for 3 h in the dark. Solubilisation was commenced by the addition of DMSO ([…]) and the cells were maintained at 20 °C in the dark for 20 min before reading the absorbance to ensure complete colour diffusion. The absorbance value of control cells (no added compound) was set to 100% cell viability and absorbance versus cell density per well was determined to assess cell viability using Graph-Pad Prism software. AlamarBlue cell viability assay: Cells were seeded in 96-well plates (e.g., MCF-7, 5 × 10^3 cells/well) and (HT-29 cells, 1 × 10^3 cells/well) and (HL-60 cells, 1 × 10^4 cells/well) with a total volume per well of 200 µL. After 24 h, cells were treated in triplicate with serial dilutions of CA-4 or β-lactam analogues (0.001–100 μM), medium alone or vehicle (1% ethanol (v/v)). […]

MDA-MB-231 cells = test: Cell viability assay, antiproliferative activity; type: cell-based; conditions: Homo sapiens; MDA-MB-231, 72 h; 10e and 11n results from NCI; read-out: Antiproliferative Activity IC50 MDA-MB-231, 72 h
Source text: Selected β-lactam compounds were next evaluated in the triple negative cell line MDA-MB-231 (Table 4). […] These cancers are difficult to treat since they are generally not responsive to hormone therapies such as the selective oestrogen receptor modulator (SERM) tamoxifen, or aromatase inhibitors such as anastrozole, or to the monoclonal antibody Herceptin, which targets the HER2 receptor. There are fewer treatment options available for TNBC compared with ER+, PR+ and HER2+ breast cancers and the prognosis is poorer. […]. The human breast carcinoma cell line MCF-7 was purchased from the European Collection of Animal Cell Cultures (ECACC). Triple negative breast cancer Hs578T cells and its invasive variant Hs578Ts(i)8 were a kind gift from Dr. Susan McDonnell, School of Chemical and Bioprocess Engineering, University College Dublin. U266 cells were a gift from Dr. Tony McElligott, School of Medicine, St James’s Hospital, Trinity College Dublin. HT-29 cells were purchased from the European Collection of Cell Cultures (originating from a human adenocarcinoma of the colon). The human breast carcinoma cell line MDA-MB-231 and the HL-60 cells derived from a patient with acute myeloid leukaemia were both obtained from ECACC (Salisbury, UK). The SW-480 cells were a kind gift from Dr. Brian Flood, School of Biochemistry and Immunology, Trinity College Dublin. HEK-293T (normal epithelial embryonic kidney cells) were cultured in Dulbecco’s Modified Eagle’s Medium (DMEM) with GlutaMAXTM-I in the absence of non-essential amino acids. Human breast cancer MCF-7 cells and multiple myeloma U266 cells were cultured in Minimum Essential Media (MEM) with GlutaMAX™-I, supplemented with 1% (v/v) non-essential amino acids, 10% 2(v/v) foetal bovine serum (FBS) and 1% (v/v) penicillin/streptomycin 5000 U/mL. MDA-MB-231 cells were maintained in DMEM supplemented with 10% (v/v) foetal bovine serum, 2 mM L-glutamine and 100 μg/mL penicillin/streptomycin (complete medium). Colon cancer HT-29 and SW-480 and triple negative breast cancer Hs578T and its invasive variant Hs578T8i were cultured in DMEM with GlutaMAX™-I, with the same supplement in the absence of non-essential amino acids. Leukaemia HL-60 cancer cells were cultured in Roswell Park Memorial Institute Media (RPMI-1640) with GlutaMAX™-I, supplemented with 10% FCS media, and 100 μg/mL penicillin/streptomycin as above. Cell numbers were monitored using a haemocytometer. Cell culture flasks were incubated in a humidified incubator (5% CO2/95% air) at 37 °C. All cell lines were sub-cultured three times per week with trypsinisation using TrypLE Express (1X) required for adherent cell lines.
as §2, with “software.” for “software. AlamarBlue cell viability assay: Cells were seeded in 96-well plates (e.g., MCF-7, 5 × 10^3 cells/well) and (HT-29 cells, 1 × 10^3 cells/well) and (HL-60 cells, 1 × 10^4 cells/well) with a total volume per well of 200 µL. After 24 h, cells were treated in triplicate with serial dilutions of CA-4 or β-lactam analogues (0.001–100 μM), medium alone or vehicle (1% ethanol (v/v)).”

SW480 cells = test: Cell viability assay, antiproliferative activity; type: cell-based, human; conditions: SW480, 10 μM
Procedure: […]. The corresponding values for 10e in these cell lines were 161 nM (HL-60), 55 nM (SW480) and 135 nM (HT-29). […] […]. SW480 colon cells expressed low levels of the UDP-glucuronosyltransferase (UGT) protein compared to expression levels in HT-29 cells. […] […].
as §1, §2

Structure (SMILES): COc1ccc(C(=O)c2cc(OC)c(OC)c(OC)c2)cc1O [Compound 3a, phenstatin, reference compound]
cytotoxicity at 10 µM (MCF-7 cells [1]): 12%

Structure (SMILES): COc1cc(N2C(=O)C(Cl)C2c2ccc(SC)cc2)cc(OC)c1OC (stereo not drawn) [Compound 10i]
IC50 (MCF-7 cells [2]; footnote g): 0.073 ± 0.004 µM
cytotoxicity at 10 µM (MCF-7 cells [1]): 3%

Structure (SMILES): COc1cc(N2C(=O)C(Cl)C2c2cccc3ccccc23)cc(OC)c1OC (stereo not drawn) [Compound 10j, 3-Chloro-1-(3,4,5-trimethoxyphenyl)-4-(naphthalen-1-yl)azetidin-2-one]
IC50 (MCF-7 cells [3]; Homo sapiens, MCF7, 72 h): 14.7 ± 2.26 µM
cytotoxicity at 10 µM (MCF-7 cells [1]): 4%

Structure (SMILES): COc1cc(N2C(=O)C(Cl)C2c2ccc3ccccc3c2)cc(OC)c1OC (stereo not drawn) [Compound 10k, 3-Chloro-1-(3,4,5-trimethoxyphenyl)-4-(naphthalen-2-yl)azetidin-2-one]
IC50 (MCF-7 cells [3]; Homo sapiens, MCF7, 72 h): 0.2 µM
IC50 (MCF-7 cells [3]): 0.202 ± 0.015 µM
IC50 (MDA-MB-231 cells): 0.205 ± 0.034 µM

Structure (SMILES): COc1ccc(C2C(Cl)C(=O)N2c2cc(OC)c(OC)c(OC)c2)cc1Cl (stereo not drawn) [Compound 10o]
IC50 (MCF-7 cells [2]; footnote h): 0.433 ± 0.05 µM

Structure (SMILES): CCOc1ccc([C@@H]2N(c3cc(OC)c(OC)c(OC)c3)C(=O)C2(Cl)Cl)cc1 [Compound 11f]
IC50 (MCF-7 cells [2]; footnote g): 0.164 ± 0.015 µM
IC50 (MDA-MB-231 cells): 0.389 ± 0.05 µM

Structure (SMILES): COc1cc(N2C(=O)C(Cl)(Cl)C2c2ccc(SC)cc2)cc(OC)c1OC (stereo not drawn) [Compound 11i]
IC50 (MCF-7 cells [2]; footnote g): 0.291 ± 0.03 µM

Structure (SMILES): COc1ccc(C2N(c3cc(OC)c(OC)c(OC)c3)C(=O)C2(Cl)Cl)cc1C (stereo not drawn) [Compound 11o]
IC50 (MCF-7 cells [2]; footnote h): 0.747 ± 0.06 µM

Structure (SMILES): COc1ccc(N2C(=O)C(Cl)(Cl)C2c2cc(OC)c(OC)c(OC)c2)cc1 (stereo not drawn) [Compound 13a, 3,3-Dichloro-4-(3,4,5-trimethoxyphenyl)-1-(4-methoxyphenyl)azetidin-2-one]
IC50 (MCF-7 cells [3]; Homo sapiens, MCF7, 72 h): 45.9 ± 6.73 µM
melting point: 64 to 66 °C

Structure (SMILES): CCOc1ccc(N2C(=O)C(Cl)(Cl)C2c2cc(OC)c(OC)c(OC)c2)cc1 (stereo not drawn) [Compound 13b, 3,3-Dichloro-1-(4-ethoxyphenyl)-4-(3,4,5-trimethoxyphenyl)azetidin-2-one]
inhibition of cell viability at a concentration of 10 μM (MCF-7 cells [3]): 40% (10 μM)^c
melting point: 133 to 134 °C

Structure (SMILES): COc1cc(C2N(c3ccc(SC)cc3)C(=O)C2(Cl)Cl)cc(OC)c1OC (stereo not drawn) [Compound 13c, 3,3-Dichloro-1-(4-(methylthio)phenyl)-4-(3,4,5-trimethoxyphenyl) azetidin-2-one]
inhibition of cell viability at a concentration of 10 μM (MCF-7 cells [3]): 20% (10 μM)^c
melting point: 117 to 119 °C

Structure (SMILES): COc1ccc(C2C(Br)C(=O)N2c2cc(OC)c(OC)c(OC)c2)cc1O (stereo not drawn) [Compound 16j, 3-Bromo-4-(3-hydroxy-4-methoxyphenyl)-1-(3,4,5-trimethoxyphenyl) azetidin-2-one]
SW480 inhibition of cell viability (SW480 cells): 48%
inhibition of cell viability at a concentration of 10 μM (MCF-7 cells [3]): 40% (10 μM) ^c,i

The next lines start with results.

IC50 (MCF-7 cells [3]; Homo sapiens, MCF7, 72 h): 0.68 ± 0.16 µM
melting point: 93 to 94 °C
Structure (SMILES): COc1ccc(C2C(Cl)C(=O)N2c2cc(OC)cc(OC)c2)cc1 (stereo not drawn) [Compound 14a, 3-Chloro-1-(3,5-dimethoxyphenyl)-4-(4-methoxyphenyl)azetidin-2-one]

IC50 (MCF-7 cells [3]; Homo sapiens, MCF7, 72 h): 0.045 ± 0.01 µM
melting point: 129 to 130 °C
Structure (SMILES): CCOc1ccc(C2C(Cl)C(=O)N2c2cc(OC)cc(OC)c2)cc1 (stereo not drawn) [Compound 14b, 3-Chloro-1-(3,5-dimethoxyphenyl)-4-(4-ethoxyphenyl)azetidin-2-one]

IC50 (MCF-7 cells [3]; Homo sapiens, MCF7, 72 h): 1.14 ± 0.3 µM
Structure (SMILES): CCOc1ccc(C2C(Br)C(=O)N2c2cc(OC)c(OC)c(OC)c2)cc1 (stereo not drawn) [Compound 16b, 3-Bromo-4-(4-ethoxyphenyl)-1-(3,4,5-trimethoxyphenyl)azetidin-2-one]
SW480 inhibition of cell viability (SW480 cells): 50%
